From patent publication US20040122058A1, “Use of specific compounds particularly kinase inhibitors for treating viral infections” (priority 2001, published 2004)

Legend:
[1] = system: Ebola virus induced TNF-α release in primary human macrophages; format: cell-based
[2] = system: IL-1 beta release of Marburg virus infected VeroE6 cells
[3] = system: Ebola (EBO) virus infected peripheral blood mononuclear cells (PBMC); format: cell-based, human
[4] = system: Marburg (MBG) virus infected peripheral blood mononuclear cells (PBMC); format: cell-based, human
[5] = system: Marburg virus induced TNF-α release in primary human macrophages; format: cell-based
[6] = system: IL-1 beta release of Ebola virus infected VeroE6 cells
[7] = system: bacterial LPS-induced TNF-α release; format: cell-based, human

Row | Structure (SMILES) | replication of Ebola virus (plaques) (Ebola virus) | Ebola virus induced TNFα production [1] | virally induced TNF-α release [1] | release of IL-1 beta to the supernatant [2] | TNF-α release [3] | TNF-α release [4] | replication of Marburg virus (plaques) (Marburg virus) | Marburg virus induced TNFα production [5] | virally induced TNF-α release [5] | release of IL-1 beta to the supernatant [6] | bacterial LPS-induced TNF-α production [7] | bacterial LPS-induced TNF-α release [7] | Ebola virus induced TNF-α release/production [1] | Marburg virus induced TNF-α release/production [5]
1 | N#CC(=C(N)Sc1ccccc1N)C(C#N)=C(N)Sc1ccccc1N [Compound 3, 1,4-diamino-2,3-dicyano-1,4-bis(2-aminophenylthio)butadiene] | does not have an obvious effect | inhibited very strongly and dose-dependently | inhibitory effects | dramatically reduces | dose-dependent inhibitory effect | dose-dependent inhibitory effect | does not have an obvious effect | inhibited very strongly and dose-dependently | inhibitory effects | dramatically reduces | no inhibitory effect at all | did not reduce | – | –
2 | COc1cccc(-c2cc(=O)c3ccccc3o2)c1N [Compound 1, 2′-amino-3′-methoxyflavone] | – | inhibited very strongly and dose-dependently | inhibitory effects | – | dose-dependent inhibitory effect | dose-dependent inhibitory effect | – | inhibited very strongly and dose-dependently | inhibitory effects | – | no inhibitory effect at all | did not reduce | – | –
3 | Oc1ccc(-c2nc(-c3ccc(F)cc3)c(-c3ccncc3)[nH]2)cc1 [Compound 4] | – | – | – | – | – | – | – | – | – | – | no inhibitory effect at all | – | did not significantly inhibit | did not significantly inhibit
4 | O=C(NOCC1CC1)c1ccc(F)c(F)c1Nc1ccc(I)cc1Cl [Compound 2, 2-(2-chloro-4-iodophenylamino)-N-cyclopropylmethoxy-3,4-difluorobenzamide] | – | inhibited very strongly and dose-dependently | inhibitory effects | – | inhibitory effect | inhibitory effect | – | inhibited very strongly and dose-dependently | inhibitory effects | – | no inhibitory effect at all | did not reduce | – | –
